Reference: the supplement of paper PMC10307832

Experiments:
Assay in all cases: relative viability (nuclei count vs DMSO), 5 days (fraction); higher = more cells survive
Bortezomib + Crizotinib = compound: CC(C)C[C@H](NC(=O)[C@H](Cc1ccccc1)NC(=O)c1cnccn1)B(O)O [Bortezomib] + C[C@@H](Oc1cc(-c2cnn(C3CCNCC3)c2)cnc1N)c1c(Cl)ccc(F)c1Cl [Crizotinib] (partner 1 µM)
Method in brief: (§1)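 Five library-drug doses in √10 steps were combined with a fixed anchor-drug dose, or a single drug was given alone, by pin tool to lung cancer cell lines in 1536-well plates the day after seeding. Nuclei were stained and counted after 5 days. Relative viability is the nuclei count in treated wells over that in vehicle wells, taken as the median of duplicate plates.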

[1] = compound: CC1=CC(=NN1)NC2=CC(=NC(=N2)/C=C/C3=CC=CC=C3)N4CCN(CC4)C + CS(=O)(=O)CCNCc1ccc(-c2ccc3ncnc(Nc4ccc(OCc5cccc(F)c5)c(Cl)c4)c3c2)o1 [Lapatinib] (partner 2 µM)
Method in brief: as §1

[2] = compound: CC1=CC(=NN1)NC2=CC(=NC(=N2)/C=C/C3=CC=CC=C3)N4CCN(CC4)C + C[C@@H](Oc1cc(-c2cnn(C3CCNCC3)c2)cnc1N)c1c(Cl)ccc(F)c1Cl [Crizotinib] (partner 1 µM)
Method in brief: as §1

[3] = compound: CC1=CC(=NN1)NC2=CC(=NC(=N2)/C=C/C3=CC=CC=C3)N4CCN(CC4)C + NC(=O)Nc1cc(-c2cccc(F)c2)sc1C(=O)N[C@H]1CCCNC1 [AZD7762] (partner 0.2 µM)
Method in brief: as §1

Row | Cell Line | relative viability (Bortezomib + Crizotinib; first compound 0.0002 µM) | relative viability (Bortezomib + Crizotinib; first compound 0.000632 µM) | relative viability (Bortezomib + Crizotinib; first compound 0.002 µM) | relative viability (Bortezomib + Crizotinib; first compound 0.006325 µM) | relative viability (Bortezomib + Crizotinib; first compound 0.02 µM) | relative viability ([1]; first compound 0.08 µM) | relative viability ([1]; first compound 0.253 µM) | relative viability ([1]; first compound 0.8 µM) | relative viability ([1]; first compound 2.53 µM) | relative viability ([1]; first compound 8 µM) | relative viability ([2]; first compound 0.08 µM) | relative viability ([2]; first compound 0.253 µM) | relative viability ([2]; first compound 0.8 µM) | relative viability ([2]; first compound 2.53 µM) | relative viability ([2]; first compound 8 µM) | relative viability ([3]; first compound 0.08 µM) | relative viability ([3]; first compound 0.253 µM) | relative viability ([3]; first compound 0.8 µM) | relative viability ([3]; first compound 2.53 µM) | relative viability ([3]; first compound 8 µM)
1 | NCI-H1355 | 1.02 | 1.06 | 0.788 | 0.275 | 0.139 | 1.11 | 1.03 | 0.944 | 0.645 | 0.422 | 1 | 1.04 | 1.07 | 0.756 | 0.253 | 0.779 | 0.802 | 0.778 | 0.581 | 0.15
2 | NCI-H1437 | 0.966 | 0.894 | 0.92 | 0.0811 | 0.0914 | 0.853 | 0.909 | 0.833 | 0.347 | 0.105 | 0.773 | 0.922 | 0.898 | 0.999 | 0.225 | 1.17 | 1.17 | 1.21 | 1.05 | 0.416
3 | NCI-H1651 | 0.805 | 0.837 | 0.816 | 0.778 | 0.141 | 0.924 | 0.941 | 0.803 | 0.313 | 0.123 | 0.839 | 0.911 | 0.808 | 0.738 | 0.482 | 0.437 | 0.483 | 0.463 | 0.335 | 0.0886
4 | NCI-H1666 | 0.941 | 1.11 | 0.9 | 0.202 | 0.228 | 0.738 | 0.549 | 0.669 | 0.416 | 0.131 | 0.969 | 0.863 | 0.822 | 0.453 | 0.187 | 0.892 | 0.786 | 0.811 | 0.701 | 0.501
5 | NCI-H1703 | 0.561 | 0.495 | 0.133 | 0.101 | 0.081 | 1.11 | 0.975 | 0.373 | 0.177 | 0.167 | 0.636 | 0.597 | 0.339 | 0.101 | 0.0884 | 0.151 | 0.0851 | 0.114 | 0.147 | 0.0896
6 | NCI-H1734 | 0.737 | 0.71 | 0.491 | 0.106 | 0.0952 | 0.968 | 1.06 | 0.958 | 0.577 | 0.145 | 0.632 | 0.722 | 0.522 | 0.331 | 0.123 | 0.524 | 0.508 | 0.537 | 0.184 | 0.12
7 | NCI-H1755 | 0.866 | 0.828 | 0.877 | 0.196 | 0.156 | 1.06 | 1.12 | 1.01 | 0.535 | 0.143 | 0.863 | 0.929 | 0.78 | 0.593 | 0.105 | 0.448 | 0.471 | 0.396 | 0.296 | 0.184
8 | NCI-H1792 | 0.893 | 0.974 | 0.952 | 0.933 | 0.729 | 0.862 | 0.861 | 0.892 | 0.841 | 0.145 | 0.942 | 0.982 | 0.966 | 0.815 | 0.165 | 0.659 | 0.732 | 0.665 | 0.132 | 0.0222
9 | NCI-H1915 | 0.877 | 0.909 | 0.694 | 0.435 | 0.0428 | 0.972 | 1.01 | 0.954 | 0.453 | 0.514 | 0.868 | 0.92 | 0.869 | 0.593 | 0.248 | 0.76 | 0.698 | 0.754 | 0.304 | 0.352
10 | NCI-H1944 | 1.06 | 1.04 | 0.899 | 1.21 | 0.142 | 0.837 | 0.931 | 0.865 | 0.655 | 0.29 | 1.04 | 1.24 | 1.11 | 0.62 | 0.275 | 0.539 | 0.524 | 0.469 | 0.229 | 0.117
11 | NCI-H1975 | 0.944 | 0.883 | 0.192 | 0.128 | 0.127 | 0.933 | 0.923 | 0.894 | 0.203 | 0.149 | 0.91 | 0.958 | 0.548 | 0.186 | 0.147 | 0.692 | 0.872 | 0.746 | 0.429 | 0.174
12 | NCI-H1993 | 0.876 | 0.974 | 0.847 | 0.342 | 0.506 | 0.76 | – | 0.772 | 0.605 | 0.561 | 0.883 | – | 0.739 | 0.551 | 0.526 | 0.712 | 0.622 | 0.775 | 0.33 | 0.3
13 | NCI-H2085 | 0.814 | 0.988 | 0.757 | 0.188 | 0.217 | 0.633 | 0.804 | 0.841 | 0.452 | 0.309 | 0.859 | 0.831 | 0.753 | 0.343 | 0.266 | 0.95 | 1.09 | 0.882 | 0.272 | 0.186
14 | NCI-H2087 | 0.912 | 0.911 | 0.74 | 0.0857 | 0.072 | 1.01 | 1.02 | 1.03 | 0.582 | 0.188 | 0.968 | 0.58 | 0.769 | 0.567 | 0.179 | 1.27 | 1.4 | 1.39 | 0.703 | 0.176
15 | NCI-H2126 | 0.991 | 0.993 | 1.08 | 0.957 | 0.195 | 0.729 | 0.813 | 0.713 | 0.629 | 0.464 | 1.01 | 1 | 0.994 | 0.916 | 0.529 | 0.982 | 1.06 | 1.02 | 0.825 | 0.873
16 | NCI-H2170 | 1.03 | 1.02 | 1.11 | 0.233 | 0.18 | 0.277 | 0.255 | 0.244 | 0.199 | 0.166 | 1.23 | 1.13 | 1.12 | 0.434 | 0.16 | 0.875 | 0.971 | 0.556 | 0.243 | 0.114
